Laboratory results as given in BigSolDB 2.1.

CCCCCCCCCCCCCCCCCCCCCC(=O)OCCO
Conditions | solubility (mole fraction)
in 1,1,1-trichloroethane, 287.55 K | 0.0101
in 1,1,1-trichloroethane, 290.15 K | 0.0146
in 1,1,1-trichloroethane, 293.65 K | 0.0202
in 1,1,1-trichloroethane, 296.95 K | 0.0313
in 1,1,1-trichloroethane, 299.45 K | 0.043
in 1,1,1-trichloroethane, 302.35 K | 0.0571
in 1,1,1-trichloroethane, 304.35 K | 0.0718
in 1,1,1-trichloroethane, 305.75 K | 0.0958
in 1,1,1-trichloroethane, 308.95 K | 0.127
in 1,1,1-trichloroethane, 311.75 K | 0.161
in 1,1,1-trichloroethane, 318.15 K | 0.259
in cyclohexane, 295.95 K | 0.0024
in cyclohexane, 300.05 K | 0.0037
in cyclohexane, 304.75 K | 0.0102
in cyclohexane, 307.15 K | 0.0204
in cyclohexane, 308.95 K | 0.041
in cyclohexane, 311.05 K | 0.0766
in cyclohexane, 312.65 K | 0.108
in ethanol, 296.35 K | 0.0001
in ethanol, 302.05 K | 0.0002
in ethanol, 305.35 K | 0.0003
in ethanol, 311.65 K | 0.0007
in ethanol, 313.05 K | 0.0009
in ethanol, 322.45 K | 0.0131
in isobutanol, 295.75 K | 0.0001
in isobutanol, 300.35 K | 0.0004
in isobutanol, 304.45 K | 0.0018
in isobutanol, 304.55 K | 0.0016
in isobutanol, 308.45 K | 0.003
in isobutanol, 311.55 K | 0.0082
in isopropanol, 305.15 K | 0.0003
in isopropanol, 306.65 K | 0.0006
in isopropanol, 313.15 K | 0.0008
in isopropanol, 315.65 K | 0.0015
in isopropanol, 319.65 K | 0.0033
in isopropanol, 321.65 K | 0.0058
in isopropanol, 325.65 K | 0.0069
in isopropanol, 326.65 K | 0.0241
in n-butanol, 295.85 K | 0.0004
in n-butanol, 299.75 K | 0.0006
in n-butanol, 304.25 K | 0.001
in n-butanol, 307.25 K | 0.0018
in n-butanol, 309.25 K | 0.0036
in n-propanol, 296.55 K | 0.0002
in n-propanol, 299.15 K | 0.0003
in n-propanol, 302.85 K | 0.0007
in n-propanol, 303.15 K | 0.0008
in n-propanol, 306.05 K | 0.0016
in n-propanol, 308.85 K | 0.0033
in tetrachloroethylene, 297.25 K | 0.0002
in tetrachloroethylene, 298.45 K | 0.0003
in tetrachloroethylene, 301.95 K | 0.0005
in tetrachloroethylene, 303.25 K | 0.0008
in tetrachloroethylene, 309.75 K | 0.0028
in trichloroethylene, 296.25 K | 0.0089
in trichloroethylene, 301.35 K | 0.0177
in trichloroethylene, 306.45 K | 0.0406
in trichloroethylene, 310.85 K | 0.0804
in trichloroethylene, 311.25 K | 0.252

CCCCCCCCCCCCCCCCCC(=O)OCCO
Conditions | solubility (mole fraction)
in 1,1,1-trichloroethane, 287.65 K | 0.0097
in 1,1,1-trichloroethane, 290.45 K | 0.0147
in 1,1,1-trichloroethane, 293.65 K | 0.0227
in 1,1,1-trichloroethane, 295.75 K | 0.0339
in 1,1,1-trichloroethane, 298.55 K | 0.0504
in 1,1,1-trichloroethane, 300.95 K | 0.0723
in 1,1,1-trichloroethane, 304.25 K | 0.108
in 1,1,1-trichloroethane, 307.75 K | 0.164
in 1,1,1-trichloroethane, 311.65 K | 0.239
in 1,1,1-trichloroethane, 314.45 K | 0.348
in 1,1,2-trichlorotrifluoroethane, 290.45 K | 0.0013
in 1,1,2-trichlorotrifluoroethane, 295.55 K | 0.0029
in 1,1,2-trichlorotrifluoroethane, 303.45 K | 0.0077
in 1,1,2-trichlorotrifluoroethane, 303.65 K | 0.0087
in 1,1,2-trichlorotrifluoroethane, 306.05 K | 0.0124
in 1,1,2-trichlorotrifluoroethane, 308.05 K | 0.0192
in 1,1,2-trichlorotrifluoroethane, 309.85 K | 0.0307
in 1,1,2-trichlorotrifluoroethane, 311.45 K | 0.049
in 1,1,2-trichlorotrifluoroethane, 312.65 K | 0.0769
in 1,1,2-trichlorotrifluoroethane, 314.15 K | 0.128
in 1,1,2-trichlorotrifluoroethane, 316.75 K | 0.276
in cyclohexane, 282.05 K | 0.0007
in cyclohexane, 288.35 K | 0.0015
in cyclohexane, 294.65 K | 0.0033
in cyclohexane, 298.15 K | 0.0067
in cyclohexane, 299.15 K | 0.0088
in cyclohexane, 300.25 K | 0.0128
in cyclohexane, 300.85 K | 0.0135
in cyclohexane, 302.25 K | 0.0199
in cyclohexane, 303.85 K | 0.314
in cyclohexane, 305.45 K | 0.0499
in cyclohexane, 307.15 K | 0.0774
in cyclohexane, 309.35 K | 0.129
in cyclohexane, 312.46 K | 0.208
in cyclohexane, 315.56 K | 0.303
in ethyl acetate, 297.45 K | 0.0118
in ethyl acetate, 298.35 K | 0.016
in ethyl acetate, 299.15 K | 0.0204
in ethyl acetate, 299.75 K | 0.0248
in ethyl acetate, 300.95 K | 0.0332
in ethyl acetate, 302.15 K | 0.0433
in ethyl acetate, 305.05 K | 0.065
in ethyl acetate, 306.05 K | 0.0868
in ethyl acetate, 308.75 K | 0.125
in ethyl acetate, 312.75 K | 0.233
in n-butyl acetate, 294.45 K | 0.0094
in n-butyl acetate, 295.35 K | 0.0174
in n-butyl acetate, 297.45 K | 0.0304
in n-butyl acetate, 298.65 K | 0.0507
in n-butyl acetate, 302.65 K | 0.0761
in n-butyl acetate, 306.75 K | 0.129
in n-butyl acetate, 313.15 K | 0.267
in n-hexyl acetate, 293.95 K | 0.0267
in n-hexyl acetate, 299.35 K | 0.0423
in n-hexyl acetate, 302.35 K | 0.0633
in n-hexyl acetate, 305.95 K | 0.0919
in n-hexyl acetate, 308.15 K | 0.128
in n-hexyl acetate, 309.75 K | 0.158
in n-hexyl acetate, 311.65 K | 0.202
in n-hexyl acetate, 313.73 K | 0.256
in n-hexyl acetate, 317.15 K | 0.339
in n-hexyl acetate, 320.05 K | 0.464
in n-hexyl acetate, 332.85 K | 0.631
in n-pentyl acetate, 294.95 K | 0.0324
in n-pentyl acetate, 298.95 K | 0.0453
in n-pentyl acetate, 300.85 K | 0.168
in n-pentyl acetate, 301.75 K | 0.0655
in n-pentyl acetate, 303.75 K | 0.0897
in n-pentyl acetate, 305.75 K | 0.121
in n-pentyl acetate, 311.95 K | 0.232
in n-pentyl acetate, 314.95 K | 0.316
in n-pentyl acetate, 318.45 K | 0.447
in n-pentyl acetate, 322.85 K | 0.657
in n-propyl acetate, 297.75 K | 0.0357
in n-propyl acetate, 299.95 K | 0.0493
in n-propyl acetate, 302.15 K | 0.0655
in n-propyl acetate, 304.35 K | 0.0992
in n-propyl acetate, 306.45 K | 0.137
in n-propyl acetate, 308.75 K | 0.174
in n-propyl acetate, 311.85 K | 0.228
in n-propyl acetate, 314.95 K | 0.315
in n-propyl acetate, 317.85 K | 0.405
in n-propyl acetate, 322.15 K | 0.566

CCCCCCCCCCCCCCCCCCCC(=O)OCCO
Conditions | solubility (mole fraction)
in 1,1,1-trichloroethane, 296.75 K | 0.0241
in 1,1,1-trichloroethane, 299.75 K | 0.0469
in 1,1,1-trichloroethane, 303.75 K | 0.0762
in 1,1,1-trichloroethane, 309.55 K | 0.142
in MIBK, 294.65 K | 0.0026
in MIBK, 298.05 K | 0.0049
in MIBK, 299.25 K | 0.008
in MIBK, 302.65 K | 0.0176
in MIBK, 307.55 K | 0.0486
in MIBK, 311.75 K | 0.173
in cyclohexane, 296.35 K | 0.003
in cyclohexane, 298.75 K | 0.0044
in cyclohexane, 301.55 K | 0.008
in cyclohexane, 303.25 K | 0.0189
in cyclohexane, 305.65 K | 0.0367
in cyclohexane, 307.25 K | 0.069
in cyclohexane, 310.55 K | 0.122
in ethanol, 311.25 K | 0.0006
in ethanol, 314.65 K | 0.0012
in ethanol, 319.15 K | 0.002
in ethanol, 322.15 K | 0.005
in ethanol, 324.15 K | 0.0139
in isopropanol, 302.85 K | 0.0002
in isopropanol, 304.05 K | 0.0005
in isopropanol, 306.35 K | 0.0008
in isopropanol, 309.85 K | 0.001
in isopropanol, 310.65 K | 0.0017
in isopropanol, 310.95 K | 0.0026
in isopropanol, 313.15 K | 0.0028
in isopropanol, 316.15 K | 0.0062
in isopropanol, 318.15 K | 0.0134
in isopropanol, 319.85 K | 0.082
in isopropanol, 319.95 K | 0.193
in n-butanol, 303.75 K | 0.0006
in n-butanol, 303.95 K | 0.001
in n-butanol, 306.55 K | 0.0018
in n-butanol, 306.75 K | 0.0019
in n-butanol, 307.95 K | 0.0027
in n-butanol, 308.85 K | 0.0039
in n-butanol, 310.85 K | 0.0059
in n-butanol, 313.75 K | 0.0122
in n-butanol, 315.75 K | 0.0201
in n-butanol, 317.35 K | 0.0783
in n-butanol, 317.45 K | 0.151
in n-butyl acetate, 294.75 K | 0.0036
in n-butyl acetate, 296.55 K | 0.0065
in n-butyl acetate, 297.45 K | 0.009
in n-butyl acetate, 299.85 K | 0.0127
in n-butyl acetate, 301.05 K | 0.0184
in n-butyl acetate, 303.45 K | 0.0288
in n-butyl acetate, 307.35 K | 0.0655
in n-butyl acetate, 312.35 K | 0.147
in n-butyl acetate, 312.85 K | 0.172
in n-butyl acetate, 313.35 K | 0.185
in trichloroethylene, 297 K | 0.0428
in trichloroethylene, 299.25 K | 0.0575
in trichloroethylene, 304.25 K | 0.104
in trichloroethylene, 307.7 K | 0.15
in trichloroethylene, 311.3 K | 0.216
